The nature of series [1]: Stability under sterilization conditions: absorbance (284 nm) variation after sterilization (121° C. 45 min). The series is classed as physicochemical. Here is the method:
The products were tested for stability under sterilization conditions at neutral pH. A significant reduction of absorbance variation at 284 nm (Δ Abs) after sterilization is observed for the reduced compounds. The reduced compounds from Example 1 are listed as HMW1 red, HMW2 red and LMW red in Table 1.
Utilizing the three different samples of maltodextrins discussed above with respect to Example 1, oxidation reactions were carried out on each sample by dissolving 15 grams of maltodextrin in 30 ml of water and combining the starch solution with an effective amount of NaOCl in 70 ml of a solution containing sodium hydroxide and having a pH of 8±0.5 at a temperature of 43° C. The combined solutions were allowed to stand for approximately 2 hours and the product solution was purified by gel permeation chromatography. Again, the products were analyzed using ^13C NMR spectroscopy and were tested for stability under sterilization conditions as illustrated in Table 1. While the oxidation products, HMW1 ox HMW2 ox and LMW ox show contrasting results, this is attributed to the high molecular weight oxidized products not being completely purified.
The stability of one product shown in Table 3 was tested for stability under sterilization conditions and the observed variation at 284 nm is compared with that of glucose and methyl glycoside.

Series [2] can be described thus: In vitro dialysis test predictive of dialytic efficiency: volume increase inside dialysis bag (Spectra Pore membrane, cut-off 500 Dalton). The conditions noted are these: 37° C. The method, then: In an in vitro test predictive of the dialytic efficiency of the osmotic agents described above, small dialysis bags with Spectra Pore membrane with a cut-off 500 Dalton (diameter 15 mm, 15 cm high) were filled with 3 ml of water solutions at different concentrations (2.5, 5.0% w/v of the samples). The bags were immersed in 200 ml of distilled water and 37° C. while stirring the extra dialysis solution. At given times (0, 1, 2, 3, 4, 5, 6 hours), the increase in the volume inside the dialysis bag was evaluated by weight and expressed as a percentage increase compared to the starting volume (Δw %).

Where [3] appears, read: 2.5% solution at pH 7 (footnote *), sterilization 121° C. 45 min.
The mark [4] stands for this setting: Table 4, 2.5% (w/v), sterilization 121° C. 45 min.
Where [5] appears, read: 2.5% w/v, listed as α-methly-gluc.
The mark [6] stands for this setting: 2.5% w/v, listed as β-methly-gluc.

As for `O=C1O[C@H](CO)[C@@H](O)[C@H](O)[C@H]1O` [D(+)-Gluconolactone], the “ΔAbs (pH 6.5–7.5)” value in series [1] (setting [3]) turned out to be 0.01.
As for `O=C[C@H](O)[C@@H](O)[C@H](O)[C@H](O)CO` [Glucose], the “ΔAbs (pH 6.5–7.5)” value in series [1] (setting [3]) turned out to be 0.98. For the same molecule, in series [1] (5% solution, after minus before sterilization 121° C. 45 min, pH 6.5–7.5), the “ΔAbs (pH 6.5–7.5)” value was 2.54 ± 0.78. Besides, the “ΔAbs (pH 5.5)” value in series [1] (5% solution, sterilization 121° C. 45 min, pH 5.5) came out at 2.36 ± 0.96. Moreover, the “ΔAbs neutra (pH 6.5–7.5)” value in series [1] (setting [4]) is on record as 0.07. Besides, in series [1] (Table 4, 5% (w/v), sterilization 121° C. 45 min), the “ΔAbs neutra (pH 6.5–7.5)” value stood at 2.43 ± 0.9. Moreover, in series [2] (2.5% w/v), the “Δw % 1 h” value is recorded as 15.3%, the “Δw % 2 h” value is reported as 34.2%, the “Δw % 3 h” value is 43.4% and the “Δw % 4 h” value was 57.3%. Moreover, in series [2] (2.5% w/v), the “Δw % 5 h” value is 74.2% and the “Δw % 6 h” value is 90.9%.
As for `O=P(O)(O)O[C@H]1O[C@H](CO)[C@@H](O)[C@H](O)[C@H]1O` [gluc.-1-phos., glucose-1-phosphate], in series [2] (2.5% w/v), the “Δw % 1 h” value is given as 35.8%, the “Δw % 2 h” value is on record as 53.6%, the “Δw % 3 h” value is on record as 76.3% and the “Δw % 4 h” value was 95.9%. In addition, in series [2] (2.5% w/v), the “Δw % 5 h” value is listed as 120.1% and the “Δw % 6 h” value is 144.1%.
On to `COC1OC(CO)C(O)C(O)C1O` (stereo not drawn) [α-methyl-gluc.], for which, in series [2] (setting [5]), the “Δw % 1 h” value is 21.8%, the “Δw % 2 h” value is recorded as 39.2%, the “Δw % 3 h” value is reported as 55.4% and the “Δw % 4 h” value is 67.64%. For the same molecule, in series [2] (setting [5]), the “Δw % 5 h” value is reported as 79.5% and the “Δw % 6 h” value is reported as 92.1%. Besides, in series [2] (5% w/v), the “Δw % 1 h” value is reported as 30.9%, the “Δw % 2 h” value is reported as 60.7%, the “Δw % 3 h” value is 86.5% and the “Δw % 4 h” value is given as 107.9%. Further, in series [2] (5% w/v), the “Δw % 5 h” value is 123.2% and the “Δw % 6 h” value is on record as 142.0%.
On to `COC1OC(CO)C(O)C(O)C1O` (stereo not drawn) [β-methyl-gluc.], for which, in series [2] (setting [6]), the “Δw % 1 h” value is listed as 34.0%, the “Δw % 2 h” value is recorded as 50.3%, the “Δw % 3 h” value is 63.7% and the “Δw % 4 h” value is given as 67.6%. Moreover, in series [2] (setting [6]), the “Δw % 5 h” value is 77.7% and the “Δw % 6 h” value is listed as 86.5%. Besides, in series [2] (5% w/v), the “Δw % 1 h” value is listed as 45%, the “Δw % 2 h” value is on record as 76.1%, the “Δw % 3 h” value is reported as 103.0% and the “Δw % 4 h” value was 129.7%. Besides, in series [2] (5% w/v), the “Δw % 5 h” value was 151.7% and the “Δw % 6 h” value is 174.9%.
Take Methyl glycoside: the “ΔAbs neutra (pH 6.5–7.5)” value in series [1] (setting [4]) was 0.01.

The record behind these values is US7208479B2, “Peritoneal dialysis solution containing modified icodextrins” (Baxter International, Inc., priority 1998, dated 2007).
